Reference: patent publication US10501435B2, “Substituted quinazoline compounds and uses thereof for modulating glucocerebrosidase activity” (Northwestern University, priority 2015, dated 2019)

Molecular target: Glucocerebrosidase (Homo sapiens (Human), UniProt P04062)
Assay: Glucocerebrosidase activity assay with blue substrate (4MU-Glc)
Type: biochemical
Details: cells marked (act)
Method: The compounds in DMSO solution 0.5 μL/well were transferred to a black 96-well plate. The final titration was 24 nM to 50 μM, 12 concentrations, 2 times dilution. […] After 5 min of incubation at room temperature, the enzyme reaction was initiated by the addition of 33 μL/well blue substrate. Final concentrations of the blue substrate (4MU-Glc) was 1.5 mM. The blue substrate reaction was terminated by the addition of 33 μL/well stop solution (1 M NaOH and 1 M glycine mixture, pH 10) after 30 min of incubation at 37° C. The fluorescence was then measured in the Biotek Synergy H1 multi-mode plate reader with Ex=365 nm and Em=440 nm.
Additional compounds were prepared and tested according to the procedures provided in the examples above.
Additional substituted quinazoline compounds were prepared and tested according to the procedures provided in the examples above.

Chain of Glucocerebrosidase (P04062 40-536): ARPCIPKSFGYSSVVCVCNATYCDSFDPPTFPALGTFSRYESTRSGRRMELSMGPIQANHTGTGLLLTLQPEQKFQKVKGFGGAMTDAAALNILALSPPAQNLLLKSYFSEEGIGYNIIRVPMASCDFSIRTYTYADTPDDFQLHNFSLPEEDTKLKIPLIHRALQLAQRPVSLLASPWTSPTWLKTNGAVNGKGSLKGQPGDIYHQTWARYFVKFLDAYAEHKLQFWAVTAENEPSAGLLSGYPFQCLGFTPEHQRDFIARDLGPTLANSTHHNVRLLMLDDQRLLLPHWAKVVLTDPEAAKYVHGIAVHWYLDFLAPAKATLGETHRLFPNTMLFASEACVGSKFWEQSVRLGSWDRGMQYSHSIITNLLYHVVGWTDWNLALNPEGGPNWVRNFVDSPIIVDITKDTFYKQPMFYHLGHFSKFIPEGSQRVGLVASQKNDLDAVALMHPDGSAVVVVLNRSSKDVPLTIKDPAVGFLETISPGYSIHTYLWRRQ

SMILES	IC50 or AC50 (μM): AC50 (act)
Nc1nc(-c2cccnc2)nc2ccccc12 [compound 35]	Weak (act)
[N-]=[N+]=Nc1c(F)c(F)c(CNc2nc(-c3cccnc3)nc3ccccc23)c(F)c1F [compound 37]	Weak (act)
CN1CCN(c2ccc(C(=O)N3CCN(c4nc(-c5cccnc5)nc5ccccc45)CC3)cc2)CC1 [compound 38]	Weak (act)
c1ccc(Nc2nc(-c3cccnc3)nc3ccccc23)cc1 [compound 50]	Weak (act)
CC(C)(C)Nc1nc(-c2cccnc2)nc2ccccc12 [compound 54]	Weak (act)
c1ccc(C2CCCN(c3nc(-c4cccnc4)nc4ccccc34)C2)cc1 (centres unmarked) [compound 82]	Weak (act)

Same assay, conditions: cells marked (act); read-out: IC50 or AC50 (μM): AC50 (act)

SMILES	AC50 [µM]
CN(CC1COc2ccccc2O1)c1nc(-c2cccnc2)nc2ccccc12 (centres unmarked) [compound 3]	1.78
CN(Cc1ccccn1)c1nc(-c2cccnc2)nc2ccccc12 [compound 5]	35.5
CN(CC1COCCO1)c1nc(-c2cccnc2)nc2ccccc12 (centres unmarked) [compound 6]	11.2
CN(Cc1cccnc1)c1nc(-c2cccnc2)nc2ccccc12 [compound 7]	12.6
CN(Cc1ccncc1)c1nc(-c2cccnc2)nc2ccccc12 [compound 8]	15.8
CN(Cc1cnccn1)c1nc(-c2cccnc2)nc2ccccc12 [compound 9]	14.1
CN(Cc1cnc2ccccc2n1)c1nc(-c2cccnc2)nc2ccccc12 [compound 10]	0.89
CN(Cc1ccc2c(c1)OCO2)c1nc(-c2cccnc2)nc2ccccc12 [compound 11]	1
CN1Cc2ccc(CN(C)c3nc(-c4cccnc4)nc4ccccc34)cc2C1 [compound 13]	44.7
CN(Cc1nc2ccccc2s1)c1nc(-c2cccnc2)nc2ccccc12 [compound 14]	1.12
COc1ccccc1CN(C)c1nc(-c2cccnc2)nc2ccccc12 [compound 16]	3.13
CN(Cc1ccc2ccccc2c1)c1nc(-c2cccnc2)nc2ccccc12 [compound 17]	1.56
CN(Cc1nc2ccccc2o1)c1nc(-c2cccnc2)nc2ccccc12 [compound 18]	11.2
CN(Cc1ccc2c(c1)OCCO2)c1nc(-c2cccnc2)nc2ccccc12 [compound 19]	3.98
CN(Cc1ccc2nsnc2c1)c1nc(-c2cccnc2)nc2ccccc12 [compound 21]	3.55
CC(C)(C)OC(=O)N1CCN(c2nc(-c3cccnc3)nc3ccccc23)CC1 [compound 22]	10

SMILES	AC50 [µM]
CN(Cc1scc2c1OCCO2)c1nc(-c2cccnc2)nc2ccccc12 [compound 24]	2
CC(C)Cc1noc(CN(C)c2nc(-c3cccnc3)nc3ccccc23)n1 [compound 25]	35.5
Cc1ccc(S(=O)(=O)N2CCN(c3nc(-c4cccnc4)nc4ccccc34)CC2)cc1 [compound 26]	1
c1cncc(-c2nc(NCCC3COc4ccccc4O3)c3ccccc3n2)c1 (centres unmarked) [compound 27]	0.6
CCN(CC1COc2ccccc2O1)c1nc(-c2cccnc2)nc2ccccc12 (centres unmarked) [compound 28]	2.82
c1cncc(-c2nc(N3CCN(CC4COc5ccccc5O4)CC3)c3ccccc3n2)c1 (centres unmarked) [compound 30]	3.13
CN(Cc1ccc(-n2ccnc2)cc1)c1nc(-c2cccnc2)nc2ccccc12 [compound 31]	19.9
CN(CCC1COc2ccccc2O1)c1nc(-c2cccnc2)nc2ccccc12 (centres unmarked) [compound 32]	3.16
CN1CCN(c2ccc(CNc3nc(-c4cccnc4)nc4ccccc34)cc2)CC1 [compound 36]	39.8
CN(c1nc(-c2cccnc2)nc2ccccc12)C1CCCCC1 [compound 56]	5.01
CN(CCc1cccc(F)c1)c1nc(-c2cccnc2)nc2ccccc12 [compound 59]	4.47
c1cncc(-c2nc(N3C4CCC3CC4)c3ccccc3n2)c1 [compound 64]	2.24
Nc1ccc(CCNc2nc(-c3cccnc3)nc3ccccc23)cc1 [compound 71]	2
c1ccc(CC2CCCCN2c2nc(-c3cccnc3)nc3ccccc23)cc1 (centres unmarked) [compound 83]	2.24
c1ccc(CC2CCCN(c3nc(-c4cccnc4)nc4ccccc34)C2)cc1 (centres unmarked) [compound 87]	2.51

Same assay, conditions: cells marked activator

SMILES	Activity AC50 or IC50 (μM unless nM indicated): AC50, activator
CN(c1nc(-c2cccnc2)nc2ccccc12)C1Cc2ccc(C#CCCCCCCCCC(=O)ON3C(=O)CCC3=O)cc2C1 (centres unmarked) [compound 105]	Weak activator
COC(=O)CCCCCCCCC#Cc1ccc(OCCN(C)c2nc(-c3cccnc3)nc3ccccc23)cc1 [compound 109]	Weak activator
CN(CCOc1ccc(C#CCOCCOCCNc2nc(-c3cccnc3)nc3ccccc23)cc1)c1nc(-c2cccnc2)nc2ccccc12 [compound 110]	Weak activator
CN(CCCCCCCCCCN(C)c1nc(-c2cccnc2)nc2ccccc12)c1nc(-c2cccnc2)nc2ccccc12 [compound 112]	Weak activator
c1cncc(-c2nc(N3CCCOCC3)c3ccccc3n2)c1 [compound 116]	Weak activator
CN(c1nc(-c2cccnc2)nc2ccccc12)C1CCCCCCC1 [compound 123]	Weak activator
CN(CCOc1ccccc1)c1nc(-c2ccccn2)nc2ccccc12 [compound 143]	Weak activator
CN(CCOc1ccc(C#CCCCCCCCCC(=O)ON2C(=O)CCC2=O)cc1)c1nc(-c2cccnc2)nc2ccccc12 [compound 153]	activator

Same assay, conditions: cells marked activator; read-out: Activity AC50 or IC50 (μM unless nM indicated): AC50, activator

SMILES	AC50 [µM]
Cc1ccc(OCCNc2nc(-c3cccnc3)nc3ccccc23)cc1 [compound 90]	0.62
CN(CCOc1ccc(C#CCCCCCCC#Cc2ccc(OCCN(C)c3nc(-c4cccnc4)nc4ccccc34)cc2)cc1)c1nc(-c2cccnc2)nc2ccccc12 [compound 111]	35
C#CCOCCOCCNc1nc(-c2cccnc2)nc2ccccc12 [compound 113]	12.6
c1cncc(-c2nc(N3CCOc4ccccc4C3)c3ccccc3n2)c1 [compound 115]	7.94
COC(=O)CCCCCCCCCCc1ccc(OCCN(C)c2nc(-c3cccnc3)nc3ccccc23)cc1 [compound 117]	7.08
CN(c1nc(-c2cccnc2)nc2ccccc12)C1CCCC1 [compound 118]	22.4
CN(CCCCc1ccccc1)c1nc(-c2cccnc2)nc2ccccc12 [compound 120]	3.16
CN(c1nc(-c2cccnc2)nc2ccccc12)C1CCCCCC1 [compound 121]	8.91
CN(CCc1ccccc1)c1nc(-c2cccnc2)nc2ccccc12 [compound 122]	5.01
CN(CCOc1ccccc1)c1nc(Cl)nc2ccccc12 [compound 124]	10
CN(CCOc1ccccc1)c1nc(-c2cncnc2)nc2ccccc12 [compound 127]	1.25
CN(CCOc1ccccc1)c1nc(-c2ccccc2F)nc2ccccc12 [compound 128]	1.25
CN(CCOc1ccccc1)c1nc(-c2ccncc2)nc2ccccc12 [compound 130]	3.98
CN(CCOc1ccccc1)c1nc(-c2ccco2)nc2ccccc12 [compound 133]	31.6
CN(CCOc1ccccc1)c1nc(-c2ccoc2)nc2ccccc12 [compound 134]	0.65
COc1ccccc1OCCN(C)c1nc(-c2cccnc2)nc2ccccc12 [compound 135]	22.4
Cc1ccc(OCCN(C)c2nc(-c3cccnc3)nc3ccccc23)cc1 [compound 136]	3.55
CN(CCCOc1ccccc1)c1nc(-c2cccnc2)nc2ccccc12 [compound 137]	5.01
CC(CN(C)c1nc(-c2cccnc2)nc2ccccc12)Oc1ccccc1 (centres unmarked) [compound 138]	5.62
CC(COc1ccccc1)N(C)c1nc(-c2cccnc2)nc2ccccc12 (centres unmarked) [compound 139]	5.62

Molecular target: wild-type GCase (Homo sapiens (Human), UniProt P04062)
Assay: GCase enzyme activity assay (4MU-β-Glc substrate, no taurocholate)
Type: biochemical
Details: not given
Method: In previous studies, high concentrations of taurocholate (4-10 mM) were used to improve the signal in GCase enzyme activity assays^16,27,28. […] Here we describe our modifications of the substituents on the quinazoline ring.
4-Methylumbelliferyl β-D-glucopyranoside (4MU-β-Glc), 4-methylumbelliferyl α-D-glucopyranoside, 4-methylumbelliferyl α-D-galactopyranoside, and buffer components were purchased from Sigma-Aldrich (St. Louis, Mo.). The recombinant wild-type GCase enzyme velaglucerase alfa (Vpriv®, Shire Human Genetic Therapies, Inc.), acid α-glucosidase enzyme alglucosidase alfa (Lumizyme®, Genzyme Corporation), α-galactosidase A enzyme agalsidase beta (Fabrazyme®, Genzyme Corporation) were used in activity assays. […] A solution of 1 M sodium hydroxide and 1 M glycine (pH 10) was used as the stop solution for all three enzyme activity assays.
GCase Enzyme Activity Assay. The compounds in DMSO solution (0.5 μL/well) were transferred to a black 96-well plate (the final titration started from 100 μM, a 12 or 24-point 2-fold dilution series). […] After 5 min of incubation at room temperature, the enzyme reaction was initiated by the addition of blue substrate (4MU-β-Glc) (33 μL/well). The final concentration of the blue substrate was 1.5 mM. The blue substrate reaction was terminated by the addition of 33 μL/well stop solution (1 M NaOH and 1 M glycine mixture, pH 10) after 30 min of incubation at 37° C. […] The selected compounds were further assayed under pH 5.0 and pH 7.0 to evaluate their selectivity under various pH conditions.

Chain of wild-type GCase (P04062 40-536): as above

SMILES	inhibitory activity against GCase (in words)
c1cncc(-c2nc(NC3CCCc4ccccc43)c3ccccc3n2)c1 (centres unmarked) [Compound 9d]	low micromolar range
c1cncc(-c2nc(NC3CCc4ccccc43)c3ccccc3n2)c1 (centres unmarked) [Compound 9e]	low micromolar range

Same assay, conditions: Table 4, pH 5.9, mean ± SD, triplicate

SMILES	IC50 [µM]
c1cncc(-c2nc(NC3COc4ccccc4C3)c3ccccc3n2)c1 (centres unmarked) [Compound 9f]	0.035 ± 0.003
